These results are taken from the supplement of paper PMC10307832.

Holding throughout (assay): relative viability (nuclei count vs DMSO), 5 days (fraction); higher = more cells survive
Compound in the assay “AZD5582 + Tozasertib”: C[C@@H](C(=O)N[C@@H](C1CCCCC1)C(=O)N2CCC[C@H]2C(=O)N[C@@H]3[C@@H](CC4=CC=CC=C34)OCC#CC#CCO[C@@H]5CC6=CC=CC=C6[C@@H]5NC(=O)[C@@H]7CCCN7C(=O)[C@H](C8CCCCC8)NC(=O)[C@H](C)NC)NC [AZD5582] + Cc1cc(Nc2cc(N3CCN(C)CC3)nc(Sc3ccc(NC(=O)C4CC4)cc3)n2)n[nH]1 [Tozasertib] (partner 0.1 µM)
The procedure, abridged:
(§1)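 A single step with final 0.05% Triton X-100, 1% formaldehyde and 1 ug/ml Hoechst fixed the cells and stained nuclei 5 days after treatment. Lung cancer cell lines in 1536-well plates had been treated by pin tool the day after seeding with one drug alone or a fixed anchor-drug dose plus five library-drug doses (not always all listed) in √10 steps, and nuclei were counted on 4× images. Relative viability is the ratio of nuclei in treated wells to nuclei in vehicle wells, taken as the median of duplicate plates.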

Compound in assay [1]: Cn1nnc2c(C(N)=O)ncn2c1=O [Temozolomide] + CC(C)C[C@H](NC(=O)[C@H](Cc1ccccc1)NC(=O)c1cnccn1)B(O)O [Bortezomib] (partner 0.002 µM)
The procedure, abridged: as §1

Compound in the assay “Temozolomide + Foretinib”: Cn1nnc2c(C(N)=O)ncn2c1=O [Temozolomide] + COc1cc2c(Oc3ccc(NC(=O)C4(C(=O)Nc5ccc(F)cc5)CC4)cc3F)ccnc2cc1OCCCN1CCOCC1 [Foretinib] (partner 0.25 µM)
The essentials: as §1

Compound in assay [2]: Cn1nnc2c(C(N)=O)ncn2c1=O [Temozolomide] + C[C@]1(O)C[C@@H](c2nc(-c3ccc4ccc(-c5ccccc5)nc4c3)c3c(N)nccn32)C1 [Linsitinib] (partner 1 µM)
The procedure, abridged:
as §1

With LXF-289, the relative viability with AZD5582 + Tozasertib (first compound 0.001581 µM) is 0.195; with AZD5582 + Tozasertib (first compound 0.005 µM) it was 0.192; in the assay with AZD5582 + Tozasertib (first compound 0.01581 µM), 0.18; in the assay with AZD5582 + Tozasertib (first compound 0.05 µM), 0.191; in assay [1] (first compound 0.2 µM), 1.01; in assay [1] (first compound 0.6325 µM), 1.03. In addition, the relative viability in assay [1] (first compound 2 µM) amounted to 1.05; in assay [1] (first compound 6.325 µM) it was 0.928; in assay [1] (first compound 20 µM), 0.934; with Temozolomide + Foretinib (first compound 0.2 µM), 0.978; in the assay with Temozolomide + Foretinib (first compound 0.6325 µM), 0.998; with Temozolomide + Foretinib (first compound 2 µM) it was 0.985. Moreover, the relative viability is 0.964 with Temozolomide + Foretinib (first compound 6.325 µM); 0.908 with Temozolomide + Foretinib (first compound 20 µM); 0.933 in assay [2] (first compound 0.2 µM); 0.939 in assay [2] (first compound 0.6325 µM); 0.954 in assay [2] (first compound 2 µM); 0.938 in assay [2] (first compound 6.325 µM). In assay [2] (first compound 20 µM), the relative viability worked out at 0.876.

For EMC-BAC-2, the relative viability in the assay with AZD5582 + Tozasertib (first compound 0.001581 µM) came out at 0.271; with AZD5582 + Tozasertib (first compound 0.005 µM) it was 0.269; in the assay with AZD5582 + Tozasertib (first compound 0.01581 µM) it was 0.288; with AZD5582 + Tozasertib (first compound 0.05 µM), 0.187; in assay [1] (first compound 0.2 µM), 0.977; in assay [1] (first compound 0.6325 µM), 1.13. Also, the relative viability is 1.02 in assay [1] (first compound 2 µM); 1.01 in assay [1] (first compound 6.325 µM); 1.04 in assay [1] (first compound 20 µM); 0.947 in the assay with Temozolomide + Foretinib (first compound 0.2 µM); 1.07 with Temozolomide + Foretinib (first compound 0.6325 µM); 1.02 in the assay with Temozolomide + Foretinib (first compound 2 µM). Further, the relative viability with Temozolomide + Foretinib (first compound 6.325 µM) came out at 0.998; in the assay with Temozolomide + Foretinib (first compound 20 µM) it was 0.973; in assay [2] (first compound 0.2 µM), 0.719; in assay [2] (first compound 0.6325 µM) it was 0.85; in assay [2] (first compound 2 µM) it was 0.766; in assay [2] (first compound 6.325 µM) it was 0.799. Also, the relative viability in assay [2] (first compound 20 µM) turned out to be 0.749.

Turning to 201T, the relative viability came to 1.01 with AZD5582 + Tozasertib (first compound 0.001581 µM); 1.07 in the assay with AZD5582 + Tozasertib (first compound 0.005 µM); 0.961 with AZD5582 + Tozasertib (first compound 0.01581 µM); 1.13 in the assay with AZD5582 + Tozasertib (first compound 0.05 µM); 1.15 in assay [1] (first compound 0.2 µM); 1.08 in assay [1] (first compound 0.6325 µM). Besides, the relative viability in assay [1] (first compound 2 µM) turned out to be 1.08; in assay [1] (first compound 6.325 µM), 1.07; in assay [1] (first compound 20 µM), 1.08; in the assay with Temozolomide + Foretinib (first compound 0.2 µM), 0.901; with Temozolomide + Foretinib (first compound 0.6325 µM), 1.2; in the assay with Temozolomide + Foretinib (first compound 2 µM) it was 1.14. The relative viability was found to be 1.08 in the assay with Temozolomide + Foretinib (first compound 6.325 µM); 1.03 with Temozolomide + Foretinib (first compound 20 µM); 0.975 in assay [2] (first compound 0.2 µM); 1.07 in assay [2] (first compound 0.6325 µM); 1.11 in assay [2] (first compound 2 µM); 1.04 in assay [2] (first compound 6.325 µM). Besides, the relative viability in assay [2] (first compound 20 µM) worked out at 0.991.

With RERF-LC-KJ, the relative viability in the assay with AZD5582 + Tozasertib (first compound 0.01581 µM) was 0.431; in the assay with AZD5582 + Tozasertib (first compound 0.05 µM), 0.259; in assay [1] (first compound 0.2 µM), 1.13; in assay [1] (first compound 0.6325 µM) it was 1.3; in assay [1] (first compound 2 µM), 1.17; in assay [1] (first compound 6.325 µM), 1.09. In addition, the relative viability in assay [1] (first compound 20 µM) came out at 1.08; with Temozolomide + Foretinib (first compound 0.2 µM), 0.888; with Temozolomide + Foretinib (first compound 0.6325 µM) it was 0.928; in the assay with Temozolomide + Foretinib (first compound 2 µM), 0.875; with Temozolomide + Foretinib (first compound 6.325 µM), 0.936; with Temozolomide + Foretinib (first compound 20 µM) it was 0.901. In addition, the relative viability was found to be 0.928 in assay [2] (first compound 0.2 µM); 0.888 in assay [2] (first compound 0.6325 µM); 0.948 in assay [2] (first compound 2 µM); 0.982 in assay [2] (first compound 6.325 µM); 0.868 in assay [2] (first compound 20 µM).

With SW 1573, the relative viability amounted to 0.188 with AZD5582 + Tozasertib (first compound 0.001581 µM); 0.192 with AZD5582 + Tozasertib (first compound 0.005 µM); 0.164 with AZD5582 + Tozasertib (first compound 0.01581 µM); 0.255 in the assay with AZD5582 + Tozasertib (first compound 0.05 µM); 0.949 in assay [1] (first compound 0.2 µM); 1.12 in assay [1] (first compound 0.6325 µM). Further, the relative viability in assay [1] (first compound 2 µM) worked out at 1.05; in assay [1] (first compound 6.325 µM), 1.19; in assay [1] (first compound 20 µM), 1.18; with Temozolomide + Foretinib (first compound 0.2 µM) it was 0.861; with Temozolomide + Foretinib (first compound 0.6325 µM), 0.915; in the assay with Temozolomide + Foretinib (first compound 2 µM), 0.79. Besides, the relative viability amounted to 0.725 in the assay with Temozolomide + Foretinib (first compound 6.325 µM); 0.938 in the assay with Temozolomide + Foretinib (first compound 20 µM); 0.74 in assay [2] (first compound 0.2 µM); 0.738 in assay [2] (first compound 0.6325 µM); 0.737 in assay [2] (first compound 2 µM); 0.579 in assay [2] (first compound 6.325 µM). In assay [2] (first compound 20 µM), the relative viability came out at 0.659.

Consider NCI-H2347, for which the relative viability with AZD5582 + Tozasertib (first compound 0.001581 µM) stood at 0.561; in the assay with AZD5582 + Tozasertib (first compound 0.005 µM), 0.523; in the assay with AZD5582 + Tozasertib (first compound 0.01581 µM), 0.5; in the assay with AZD5582 + Tozasertib (first compound 0.05 µM), 0.553; in assay [1] (first compound 0.2 µM), 1.34; in assay [1] (first compound 0.6325 µM), 1.05. In addition, the relative viability in assay [1] (first compound 2 µM) stood at 0.995; in assay [1] (first compound 6.325 µM), 0.836; in assay [1] (first compound 20 µM) it was 1.07; in the assay with Temozolomide + Foretinib (first compound 0.2 µM) it was 1.11; in the assay with Temozolomide + Foretinib (first compound 0.6325 µM) it was 1.03; in the assay with Temozolomide + Foretinib (first compound 2 µM), 1.42. Besides, the relative viability in the assay with Temozolomide + Foretinib (first compound 6.325 µM) was 0.773; with Temozolomide + Foretinib (first compound 20 µM), 0.982; in assay [2] (first compound 0.2 µM), 1.08; in assay [2] (first compound 0.6325 µM), 1.11; in assay [2] (first compound 2 µM) it was 1; in assay [2] (first compound 6.325 µM), 0.859. The relative viability in assay [2] (first compound 20 µM) came out at 0.964.

In the case of NCI-H2126, the relative viability with AZD5582 + Tozasertib (first compound 0.001581 µM) came out at 0.779; with AZD5582 + Tozasertib (first compound 0.005 µM), 0.698; with AZD5582 + Tozasertib (first compound 0.01581 µM), 0.806; with AZD5582 + Tozasertib (first compound 0.05 µM), 0.573; in assay [1] (first compound 0.2 µM), 1.13; in assay [1] (first compound 0.6325 µM), 1.15. For the same cell line, the relative viability in assay [1] (first compound 2 µM) turned out to be 1.1; in assay [1] (first compound 6.325 µM) it was 1.1; in assay [1] (first compound 20 µM), 1.08; with Temozolomide + Foretinib (first compound 0.2 µM), 1.04; with Temozolomide + Foretinib (first compound 0.6325 µM) it was 1.3; with Temozolomide + Foretinib (first compound 2 µM) it was 1.23. In addition, the relative viability was 1.38 with Temozolomide + Foretinib (first compound 6.325 µM); 1.27 with Temozolomide + Foretinib (first compound 20 µM); 0.691 in assay [2] (first compound 0.2 µM); 0.712 in assay [2] (first compound 0.6325 µM); 0.646 in assay [2] (first compound 2 µM); 0.768 in assay [2] (first compound 6.325 µM). Further, the relative viability in assay [2] (first compound 20 µM) was found to be 0.692.

Regarding SK-LU-1, the relative viability with AZD5582 + Tozasertib (first compound 0.001581 µM) turned out to be 0.229; with AZD5582 + Tozasertib (first compound 0.005 µM), 0.205; with AZD5582 + Tozasertib (first compound 0.01581 µM), 0.343; in the assay with AZD5582 + Tozasertib (first compound 0.05 µM) it was 0.13; in assay [1] (first compound 0.2 µM), 1.33; in assay [1] (first compound 0.6325 µM), 1.3. Moreover, the relative viability in assay [1] (first compound 2 µM) is 1.22; in assay [1] (first compound 6.325 µM) it was 0.53; in assay [1] (first compound 20 µM) it was 0.417; in the assay with Temozolomide + Foretinib (first compound 0.2 µM), 0.954; with Temozolomide + Foretinib (first compound 0.6325 µM), 0.849; in the assay with Temozolomide + Foretinib (first compound 2 µM) it was 0.585. Also, the relative viability worked out at 0.444 in the assay with Temozolomide + Foretinib (first compound 6.325 µM); 0.342 with Temozolomide + Foretinib (first compound 20 µM); 1.26 in assay [2] (first compound 0.2 µM); 1.06 in assay [2] (first compound 0.6325 µM); 1.05 in assay [2] (first compound 2 µM); 0.671 in assay [2] (first compound 6.325 µM). Also, the relative viability in assay [2] (first compound 20 µM) turned out to be 0.454.
